“Also recorded” adds a separate entry of the source.
Columns and labels:
[1] = tested on: Arabidopsis WT (Col0), OE At, OE Pa, OE M3 lines; assay: Arabidopsis seed germination test on herbicide-containing 1/2 MS medium; format: in vivo, Arabidopsis thaliana; details: 2 weeks
Protocol: In order to evaluate the resistance of different HPPD overexpression lines to herbicides, Arabidopsis seed germination tests were performed on media containing different concentrations of herbicides. T3 generation Arabidopsis seeds and Co10 (WT) seeds were performed steam surface sterilization (concentrated HCl: NaClO=1:5, v/v) for 3 h. Seeds of OE At (OE At #1, OE At #2), OE Pa (OE Pa #1, OE Pa #2), OE M3 (OE M3 #1, OE M3 #2) and Co10 (WT) were dibbled together in ^1/2 MS medium (0.5 x MS salt, 1% sucrose and 0.8% agar) in a 24-well plate, and the medium contained different concentrations (0, 31.25, 62.5, 125, 500 and 2000 nM) of mesotrione (Sigma Aldrich, USA) and sulcotrione (Sigma Aldrich, USA). Then, the plate dibbled seeds was placed in the dark at 4° C. for 3 d, and then transferred to a growth chamber at 22° C. (16 h light/8 h dark) for 2 weeks. Three biological replicates were performed per treatment per species. After 2 weeks, the test results were photographed.

[2] = tested on: Arabidopsis WT, OE At, OE Pa, OE M3 potted plants; assay: Herbicide resistance of Arabidopsis at pot level (spray); format: in vivo, Arabidopsis thaliana
Protocol: 2 week-old Arabidopsis seedlings of WT, OE At, OE Pa, and OE M3 were transplanted into soil-filled pots (12 seedlings per pot) and growth in a phytotron (22° C., 14 h light/10 h dark, 120 μmol m^−2 s^−1 light intensity) for 4 weeks. Then, 5 μM mesotrione solution (prepared with 0.05% Tween-20) were sprayed twice with a treatment interval of 3 days, and compared with the control treatment (0.05% Tween-20 without herbicide). The spray treatment was biologically repeated 3 times. Two weeks after the first herbicide spray, the test results were photographed.

[3] = tested on: Arabidopsis WT, OE At, OE Pa, OE M3 seedlings; assay: NBT and DAB staining of Arabidopsis seedlings (superoxide, hydrogen peroxide); format: in vivo, Arabidopsis thaliana; details: 100 nM, 72 h
Protocol: 2 week-old Arabidopsis seedlings were cultured continuously in ½ MS mediums with 100 nM mesotrione and without mesotrione for 72 h, and then transferred to 3.5 mg/mL NBT staining solution (prepared with potassium phosphate buffer containing 10 mM NaN3) and soaked in vacuum for 2 min, and then placed on a shaker overnight. The NBT-stained plants were placed in a mixed solution of acetic acid:glycerol:ethanol=1:1:3 (v/v/v) and destained at 100° C. for 5 min, then reserved in a mixed solution of glycerol:ethanol=1:4 (v/v), and was used to take photos to record the test results.
2 week-old Arabidopsis seedlings were cultured continuously in ½ MS mediums with 100 nM mesotrione and without mesotrione for 72 h, and then transferred to DAB staining solution, and soaked in vacuum for 2 min, and then placed on a shaker for 7-8 hours. The DAB-stained plants were placed in a mixed solution of acetic acid:glycerol:ethanol=1:1:3 (v/v/v) and destained at 100° C. for 5 min, then reserved in a mixed solution of glycerol: ethanol=1:4 (v/v), and was used to take photos to record the test results.
2 week-old T3 generation Arabidopsis seedlings of WT, OE At, OE Pa and OE M3 were transfered to different control (½ MS medium) and treatment medium (½ MS medium containing 100 nM mesotrione) for 72 h, and then stained with NBT and DAB to detect the accumulation of reactive oxygen species.

[4] = tested on: WT and T0 OE SDM rice seedlings; assay: Rice resistance to herbicide at pot level (spray); format: in vivo; details: 200 μM spray, 21 d (3 weeks)
Protocol: Transgenic T0 generation OE SDM and WT rice seedlings were planted in pots containing soil and placed in an artificial climate room (30° C. 16 h light/28° C. 8 h dark) for growth. 3 weeks later, when the rice seedlings reached a height of 15-20 cm, 200 μM mesotrione (prepared with 0.1% Tween-20) and 0.1% Tween-20 were sprayed to OE SDM and WT rice seedlings, respectively. Then, the phenotype should be observed every week. The oxidative stress index was measured 1 week after the treatment, the chlorophyll content of the leaves was measured 2 weeks after the treatment, and the experimental result was photographed 3 weeks after the treatment.

[5] = tested on: WT and T0 OE SDM rice leaves; assay: Malondialdehyde content in rice leaves; format: in vivo; details: 200 μM spray, 1 week
Protocol: Malondialdehyde (MDA) is an important marker of the degree of oxide film damage. The previous method (Heath and Packer, 1968) for the determination of malondialdehyde content was referred with slight modifications. 1 g of rice leaves were accurately weighed and place to a pre-cooling mortar. 10 mL of pre-cooling 10% trichloroacetic acid (TCA, v/v) was added and grind thoroughly. Then the lapping solution was transfered to a 10 mL centrifuge tube and centrifuged at 4000 rpm for 10 min (4° C.). 2 mL of supernatant was pipetted and mixed with an equal volume of 0.6% 2-Thiobarbituric acid (TBA, v/v), and incubated at 100° C. for 15 min.
Then the reaction solution was cooled at room temperature. The cooled reaction solution was centrifuged at 4000 rpm for 10 min (4° C.). The supernatant was taken and measured absorbance at wavelengths of 450 nm, 532 nm and 600 nm using ultraviolet spectrophotometers, respectively. Each sample was repeated 3 times. The unit of MDA content is nmol g^−1 FW.

[6] = tested on: WT (William 82), OE GmHPPD and OE PaHPPD-SDM T1 soybean plants; assay: Chlorophyll content and plant height of T1 generation soybean after whole plant spraying; format: in vivo; details: 20 μM sprayed twice, 2 weeks
Protocol: Wild type soybean William 82, T1 generation OE PaHPPD-SDM soybean and T1 generation OE GmHPPD soybean seedlings were sprayed with 20 μM mesotrione (prepared with 0.1% Tween-20) and 0.1% Tween-20 for twice, respectively. The interval between two sprays is 1 week. Two weeks after spray treatment, the total chlorophyll of the leaves was extracted and the content was determined by referring to the method of Lichtenthaler HK (1987). All experiments were repeated biologically 3 times, and the average value was taken.

For `CS(=O)(=O)c1ccc(C(=O)C2C(=O)CCCC2=O)c([N+](=O)[O-])c1` [mesotrione], the “concentration giving albino death / severely inhibited growth” value ([1]; OE At (two lines) and WT) was 31.25 nM, the “concentration at which seedlings grow normally” value ([1]; OE Pa (two lines), T3 seeds) was 62.5 nM and the “maximum tolerance concentration under potted conditions” value ([2]; Arabidopsis overexpressing PaHPPD-M3, sprayed on fully expanded leaves) was 5 µM. The phenotype ([2]; OE M3 line, 5 μM sprayed twice, 2 weeks after first spray) was “grows well”, the “phenotype of new leaves of seedlings” value ([2]; WT, OE At and OE Pa lines, 5 μM sprayed twice, 2 weeks after first spray) was “completely albino” and the “accumulation of superoxide and hydrogen peroxide of OE M3 compared with WT, OE At and OE Pa” value [3] was “significantly less; also recorded: significantly reduced”. For the same compound, the phenotype of leaves/plants ([4]; OE SDM rice line (T0)) was “grew well; also recorded: very small visible signs of damage”, the phenotype of leaves/plants ([4]; WT rice) was “albino and the growth was inhibited until death; also recorded: withered and died” and the “MDA content in WT rice leaves compared with OE SDM rice leaves” value [5] was “significantly higher”. The “contents of chlorophyll a and chlorophyll b (and plant height) of treated OE PaHPPD-SDM compared with treated OE GmHPPD and wild type” value [6] was “significant higher”, the “order of plant height of treated lines” value [6] was “OE PaHPPD-SDM>OE GmHPPD>wild-type soybean William 82” and the “contents of chlorophyll a and chlorophyll b in leaves (and plant height) compared with control treatment” value ([6]; OE GmHPPD and wild-type William 82) was “significantly lower”. The “contents of chlorophyll a and chlorophyll b in leaves (and plant height) compared with control” value ([6]; OE PaHPPD-SDM) was “reduced; also recorded: slightly reduced” and the “plant height of treated soybean compared with control” value ([6]; all lines) was “lower”.
